Measurements taken from ChEMBL document CHEMBL1795227, “Methanesulfonamido-cyclohexylamine derivatives of 2,4-diaminopyrimidine as potent ALK inhibitors” (Bioorg Med Chem Lett, 2011).
pIC50: −log10 of the molar value. Blank lines part the entries; values can stand above or below the molecule they belong to.

Key:
[1] = target: Receptor-type tyrosine-protein kinase FLT3 (Homo sapiens) (UniProt P36888); experiment: Inhibition of FLT3 at 1 uM
[2] = target: Glycogen synthase kinase-3 alpha (Homo sapiens) (UniProt P49840); experiment: Inhibition of GSK3A at 1 uM
[3] = target: Tyrosine-protein kinase ITK/TSK (Homo sapiens) (UniProt Q08881); experiment: Inhibition of ITK at 1 uM
[4] = target: Tyrosine-protein kinase JAK2 (Homo sapiens) (UniProt O60674); experiment: Inhibition of JAK2 domain 2 at 1 uM
[5] = target: Mitogen-activated protein kinase 9 (Homo sapiens) (UniProt P45984); experiment: Inhibition of JNK2 at 1 uM
[6] = system: Mast/stem cell growth factor receptor Kit (Homo sapiens), P10721 [V559D,T670I]; experiment: Inhibition of KIT V559D T670I at 1 uM
[7] = target: Tyrosine-protein kinase Lck (Homo sapiens) (UniProt P06239); experiment: Inhibition of LCK at 1 uM
[8] = target: Serine/threonine-protein kinase STK11 (Homo sapiens) (UniProt Q15831); experiment: Inhibition of LKB1 at 1 uM
[9] = target: Hepatocyte growth factor receptor (Homo sapiens) (UniProt P08581); experiment: Inhibition of MET at 1 uM
[10] = target: Mitogen-activated protein kinase 14 (Homo sapiens) (UniProt Q16539); experiment: Inhibition of p38 alpha at 1 uM
[11] = target: Mitogen-activated protein kinase 11 (Homo sapiens) (UniProt Q15759); experiment: Inhibition of p38 beta at 1 uM
[12] = target: Serine/threonine-protein kinase PAK 1 (Homo sapiens) (UniProt Q13153); experiment: Inhibition of PAK1 at 1 uM
[13] = target: Serine/threonine-protein kinase PAK 4 (Homo sapiens) (UniProt O96013); experiment: Inhibition of PAK4 at 1 uM
[14] = target: Platelet-derived growth factor receptor alpha (Homo sapiens) (UniProt P16234); experiment: Inhibition of PDGFRalpha at 1 uM
[15] = target: Serine/threonine-protein kinase pim-1 (Homo sapiens) (UniProt P11309); experiment: Inhibition of PIM1 at 1 uM
[16] = target: Serine/threonine-protein kinase pim-2 (Homo sapiens) (UniProt Q9P1W9); experiment: Inhibition of PIM2 at 1 uM
[17] = target: RAF proto-oncogene serine/threonine-protein kinase (Homo sapiens) (UniProt P04049); experiment: Inhibition of RAF1 at 1 uM
[18] = target: Proto-oncogene tyrosine-protein kinase receptor Ret (Homo sapiens) (UniProt P07949); experiment: Inhibition of RET at 1 uM
[19] = target: Proto-oncogene tyrosine-protein kinase Src (Homo sapiens) (UniProt P12931); experiment: Inhibition of SRC at 1 uM
[20] = target: Tyrosine-protein kinase SYK (Homo sapiens) (UniProt P43405); experiment: Inhibition of SYK at 1 uM
[21] = target: TGF-beta receptor type-1 (Homo sapiens) (UniProt P36897); experiment: Inhibition of TGFBR1 at 1 uM
[22] = target: Angiopoietin-1 receptor (Homo sapiens) (UniProt Q02763); experiment: Inhibition of Tie2 at 1 uM
[23] = target: Non-receptor tyrosine-protein kinase TYK2 (Homo sapiens) (UniProt P29597); experiment: Inhibition of TYK2 domain 2 at 1 uM
[24] = target: Tyrosine-protein kinase ZAP-70 (Homo sapiens) (UniProt P43403); experiment: Inhibition of ZAP70 at 1 uM
[25] = target: T1, ALK tyrosine kinase receptor (Homo sapiens, UniProt Q9UM73); experiment: Inhibition of ALK
[26] = target: T1, ALK tyrosine kinase receptor; experiment: Inhibition of autophosphorylation of NPM-ALK in human Karpas-299 cells; format: cell-based
Target sequence in this assay (Q9UM73 19-1620 limits assumed): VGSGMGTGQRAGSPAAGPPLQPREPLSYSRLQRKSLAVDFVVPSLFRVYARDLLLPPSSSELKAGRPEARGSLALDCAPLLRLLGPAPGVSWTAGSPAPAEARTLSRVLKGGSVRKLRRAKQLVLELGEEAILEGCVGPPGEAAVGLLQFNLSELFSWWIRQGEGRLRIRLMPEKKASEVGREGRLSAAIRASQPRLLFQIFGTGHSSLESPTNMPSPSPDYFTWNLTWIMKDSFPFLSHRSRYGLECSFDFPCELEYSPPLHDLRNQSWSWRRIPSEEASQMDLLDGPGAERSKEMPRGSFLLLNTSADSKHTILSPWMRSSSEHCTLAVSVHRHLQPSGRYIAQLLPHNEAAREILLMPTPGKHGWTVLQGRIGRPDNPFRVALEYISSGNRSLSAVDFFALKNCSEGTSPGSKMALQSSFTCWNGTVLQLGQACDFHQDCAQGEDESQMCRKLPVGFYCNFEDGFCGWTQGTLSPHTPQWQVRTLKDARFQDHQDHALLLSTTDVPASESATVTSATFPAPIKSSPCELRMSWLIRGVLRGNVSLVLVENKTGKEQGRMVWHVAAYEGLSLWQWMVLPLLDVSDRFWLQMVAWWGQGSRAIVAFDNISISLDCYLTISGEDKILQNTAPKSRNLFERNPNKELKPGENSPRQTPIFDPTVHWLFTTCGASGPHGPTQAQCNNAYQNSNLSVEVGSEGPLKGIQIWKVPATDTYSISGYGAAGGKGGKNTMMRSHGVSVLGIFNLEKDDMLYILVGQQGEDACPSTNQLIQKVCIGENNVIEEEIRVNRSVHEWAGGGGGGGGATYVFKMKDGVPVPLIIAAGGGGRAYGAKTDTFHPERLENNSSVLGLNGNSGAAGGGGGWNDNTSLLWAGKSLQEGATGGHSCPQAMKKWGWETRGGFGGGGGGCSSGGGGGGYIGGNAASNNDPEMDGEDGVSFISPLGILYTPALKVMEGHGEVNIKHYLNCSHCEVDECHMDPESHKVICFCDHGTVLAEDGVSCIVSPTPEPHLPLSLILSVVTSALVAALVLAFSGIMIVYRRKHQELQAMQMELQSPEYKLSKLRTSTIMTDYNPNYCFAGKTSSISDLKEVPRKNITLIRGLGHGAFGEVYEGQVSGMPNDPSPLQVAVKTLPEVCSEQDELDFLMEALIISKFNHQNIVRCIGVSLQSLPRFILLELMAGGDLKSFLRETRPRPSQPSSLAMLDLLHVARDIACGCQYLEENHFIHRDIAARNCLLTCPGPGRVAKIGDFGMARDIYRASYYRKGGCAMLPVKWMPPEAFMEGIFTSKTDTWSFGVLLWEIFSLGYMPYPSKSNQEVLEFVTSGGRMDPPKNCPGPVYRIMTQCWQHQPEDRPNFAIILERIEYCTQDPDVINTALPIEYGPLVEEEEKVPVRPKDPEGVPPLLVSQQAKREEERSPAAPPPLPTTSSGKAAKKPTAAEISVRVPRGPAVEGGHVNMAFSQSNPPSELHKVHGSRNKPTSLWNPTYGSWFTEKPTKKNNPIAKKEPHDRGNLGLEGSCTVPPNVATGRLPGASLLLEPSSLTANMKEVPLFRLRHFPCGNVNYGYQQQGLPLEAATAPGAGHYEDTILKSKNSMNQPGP

Insulin receptor = Insulin receptor (Homo sapiens, UniProt P06213); experiment: Inhibition of IR
[27] = target: High affinity nerve growth factor receptor (Homo sapiens) (UniProt P04629); experiment: Inhibition of TRKA at 1 uM
[28] = target: Tyrosine-protein kinase ABL1 (Homo sapiens) (UniProt P00519); experiment: Inhibition of ABL1 at 1 uM
[29] = system: Tyrosine-protein kinase ABL1 (Homo sapiens), P00519 [T315I]; experiment: Inhibition of ABL1 T315I at 1 uM
[30] = target: RAC-alpha serine/threonine-protein kinase (Homo sapiens) (UniProt P31749); experiment: Inhibition of AKT1 at 1 uM
[31] = target: RAC-gamma serine/threonine-protein kinase (Homo sapiens) (UniProt Q9Y243); experiment: Inhibition of AKT3 at 1 uM
[32] = target: Aurora kinase A (Homo sapiens) (UniProt O14965); experiment: Inhibition of AURKA at 1 uM
[33] = target: Aurora kinase B (Homo sapiens) (UniProt Q96GD4); experiment: Inhibition of AURKB at 1 uM
[34] = target: Aurora kinase C (Homo sapiens) (UniProt Q9UQB9); experiment: Inhibition of AURKC at 1 uM
[35] = target: Tyrosine-protein kinase receptor UFO (Homo sapiens) (UniProt P30530); experiment: Inhibition of AXL at 1 uM
[36] = target: Serine/threonine-protein kinase B-raf (Homo sapiens) (UniProt P15056); experiment: Inhibition of BRAF at 1 uM
[37] = system: Serine/threonine-protein kinase B-raf (Homo sapiens), P15056 [V600E]; experiment: Inhibition of BRAF V600E at 1 uM
[38] = target: Cyclin-dependent kinase 2 (Homo sapiens) (UniProt P24941); experiment: Inhibition of CDK2 at 1 uM
[39] = target: Epidermal growth factor receptor (Homo sapiens) (UniProt P00533); experiment: Inhibition of EGFR at 1 uM
[40] = target: Ephrin type-A receptor 2 (Homo sapiens) (UniProt P29317); experiment: Inhibition of EPHA2 at 1 uM
[41] = target: Ephrin type-A receptor 3 (Homo sapiens) (UniProt P29320); experiment: Inhibition of EPHA3 at 1 uM
[42] = target: Receptor tyrosine-protein kinase erbB-2 (Homo sapiens) (UniProt P04626); experiment: Inhibition of ERBB2 at 1 uM
[43] = target: Mitogen-activated protein kinase 1 (Homo sapiens) (UniProt P28482); experiment: Inhibition of ERK2 at 1 uM
[44] = target: Fibroblast growth factor receptor 1 (Homo sapiens) (UniProt P11362); experiment: Inhibition of FGFR1 at 1 uM
[45] = target: Fibroblast growth factor receptor 3 (Homo sapiens) (UniProt P22607); details: 1 uM
Description: Inhibition of FGFR3 at 1 uM

[46] = system: Mast/stem cell growth factor receptor Kit (Homo sapiens), P10721 [D816V]; details: 1 uM
Description: Inhibition of KIT D816V at 1 uM

[47] = target: Platelet-derived growth factor receptor beta (Homo sapiens) (UniProt P09619); details: 1 uM
Description: Inhibition of PDGFR beta at 1 uM

[48] = target: T1, ALK tyrosine kinase receptor; details: 1 uM
Target sequence in this assay (Q9UM73 19-1620 limits assumed): as above
Description: Inhibition of ALK at 1 uM

Chain of Receptor tyrosine-protein kinase erbB-2 (Homo sapiens) (P04626 whole entry): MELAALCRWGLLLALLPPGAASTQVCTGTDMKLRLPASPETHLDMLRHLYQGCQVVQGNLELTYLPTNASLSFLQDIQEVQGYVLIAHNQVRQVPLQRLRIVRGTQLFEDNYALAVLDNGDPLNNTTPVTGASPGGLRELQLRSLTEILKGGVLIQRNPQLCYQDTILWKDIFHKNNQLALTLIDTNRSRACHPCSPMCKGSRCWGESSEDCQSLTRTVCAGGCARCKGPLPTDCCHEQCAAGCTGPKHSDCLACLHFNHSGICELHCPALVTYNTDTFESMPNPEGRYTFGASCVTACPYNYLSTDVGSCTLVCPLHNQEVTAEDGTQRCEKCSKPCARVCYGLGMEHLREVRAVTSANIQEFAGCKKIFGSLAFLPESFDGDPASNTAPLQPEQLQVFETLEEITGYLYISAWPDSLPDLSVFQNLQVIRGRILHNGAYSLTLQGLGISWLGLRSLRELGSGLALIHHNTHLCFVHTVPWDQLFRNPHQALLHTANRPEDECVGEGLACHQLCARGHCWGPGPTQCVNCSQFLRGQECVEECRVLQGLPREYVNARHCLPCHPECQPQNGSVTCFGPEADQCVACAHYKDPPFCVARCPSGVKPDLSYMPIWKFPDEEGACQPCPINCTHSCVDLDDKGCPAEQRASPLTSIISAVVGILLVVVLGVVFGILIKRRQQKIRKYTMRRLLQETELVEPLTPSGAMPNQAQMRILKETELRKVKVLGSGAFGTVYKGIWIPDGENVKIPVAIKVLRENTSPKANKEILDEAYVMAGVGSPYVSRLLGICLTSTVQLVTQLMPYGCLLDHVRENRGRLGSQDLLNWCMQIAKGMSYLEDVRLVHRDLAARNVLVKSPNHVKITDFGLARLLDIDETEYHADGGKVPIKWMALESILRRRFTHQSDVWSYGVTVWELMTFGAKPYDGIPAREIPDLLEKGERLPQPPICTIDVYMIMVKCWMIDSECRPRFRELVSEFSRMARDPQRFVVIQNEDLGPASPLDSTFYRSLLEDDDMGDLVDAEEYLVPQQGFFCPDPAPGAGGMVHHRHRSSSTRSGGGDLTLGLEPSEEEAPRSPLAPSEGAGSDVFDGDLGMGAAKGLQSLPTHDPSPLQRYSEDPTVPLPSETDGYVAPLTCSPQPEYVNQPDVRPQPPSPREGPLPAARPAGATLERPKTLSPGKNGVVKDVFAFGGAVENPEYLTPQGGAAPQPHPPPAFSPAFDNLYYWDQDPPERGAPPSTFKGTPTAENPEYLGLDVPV
Chain of Serine/threonine-protein kinase PAK 1 (Homo sapiens) (Q13153 whole entry): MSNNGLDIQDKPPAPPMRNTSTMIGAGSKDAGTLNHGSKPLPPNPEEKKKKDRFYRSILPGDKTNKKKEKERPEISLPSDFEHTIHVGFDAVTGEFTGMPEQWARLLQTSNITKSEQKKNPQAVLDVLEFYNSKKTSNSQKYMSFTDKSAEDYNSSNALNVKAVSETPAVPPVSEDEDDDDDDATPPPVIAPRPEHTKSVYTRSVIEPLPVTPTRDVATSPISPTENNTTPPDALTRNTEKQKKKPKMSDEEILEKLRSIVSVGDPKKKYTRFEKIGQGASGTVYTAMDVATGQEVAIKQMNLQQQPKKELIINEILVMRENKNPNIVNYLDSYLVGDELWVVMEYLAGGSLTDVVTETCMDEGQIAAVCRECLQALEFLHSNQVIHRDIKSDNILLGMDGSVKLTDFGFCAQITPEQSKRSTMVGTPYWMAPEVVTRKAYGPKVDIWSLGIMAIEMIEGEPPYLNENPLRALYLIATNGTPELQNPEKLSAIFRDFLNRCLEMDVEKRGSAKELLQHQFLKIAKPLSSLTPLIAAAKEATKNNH
Chain of Aurora kinase C (Homo sapiens) (Q9UQB9 whole entry): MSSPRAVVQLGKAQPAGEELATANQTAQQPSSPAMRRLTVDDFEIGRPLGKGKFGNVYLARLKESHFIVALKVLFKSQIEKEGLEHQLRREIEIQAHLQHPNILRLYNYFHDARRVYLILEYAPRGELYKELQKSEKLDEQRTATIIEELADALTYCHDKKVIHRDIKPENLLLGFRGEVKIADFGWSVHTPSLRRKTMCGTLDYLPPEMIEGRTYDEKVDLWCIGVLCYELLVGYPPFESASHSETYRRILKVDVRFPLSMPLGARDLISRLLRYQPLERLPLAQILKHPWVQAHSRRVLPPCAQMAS
Chain of Platelet-derived growth factor receptor alpha (Homo sapiens) (P16234 whole entry): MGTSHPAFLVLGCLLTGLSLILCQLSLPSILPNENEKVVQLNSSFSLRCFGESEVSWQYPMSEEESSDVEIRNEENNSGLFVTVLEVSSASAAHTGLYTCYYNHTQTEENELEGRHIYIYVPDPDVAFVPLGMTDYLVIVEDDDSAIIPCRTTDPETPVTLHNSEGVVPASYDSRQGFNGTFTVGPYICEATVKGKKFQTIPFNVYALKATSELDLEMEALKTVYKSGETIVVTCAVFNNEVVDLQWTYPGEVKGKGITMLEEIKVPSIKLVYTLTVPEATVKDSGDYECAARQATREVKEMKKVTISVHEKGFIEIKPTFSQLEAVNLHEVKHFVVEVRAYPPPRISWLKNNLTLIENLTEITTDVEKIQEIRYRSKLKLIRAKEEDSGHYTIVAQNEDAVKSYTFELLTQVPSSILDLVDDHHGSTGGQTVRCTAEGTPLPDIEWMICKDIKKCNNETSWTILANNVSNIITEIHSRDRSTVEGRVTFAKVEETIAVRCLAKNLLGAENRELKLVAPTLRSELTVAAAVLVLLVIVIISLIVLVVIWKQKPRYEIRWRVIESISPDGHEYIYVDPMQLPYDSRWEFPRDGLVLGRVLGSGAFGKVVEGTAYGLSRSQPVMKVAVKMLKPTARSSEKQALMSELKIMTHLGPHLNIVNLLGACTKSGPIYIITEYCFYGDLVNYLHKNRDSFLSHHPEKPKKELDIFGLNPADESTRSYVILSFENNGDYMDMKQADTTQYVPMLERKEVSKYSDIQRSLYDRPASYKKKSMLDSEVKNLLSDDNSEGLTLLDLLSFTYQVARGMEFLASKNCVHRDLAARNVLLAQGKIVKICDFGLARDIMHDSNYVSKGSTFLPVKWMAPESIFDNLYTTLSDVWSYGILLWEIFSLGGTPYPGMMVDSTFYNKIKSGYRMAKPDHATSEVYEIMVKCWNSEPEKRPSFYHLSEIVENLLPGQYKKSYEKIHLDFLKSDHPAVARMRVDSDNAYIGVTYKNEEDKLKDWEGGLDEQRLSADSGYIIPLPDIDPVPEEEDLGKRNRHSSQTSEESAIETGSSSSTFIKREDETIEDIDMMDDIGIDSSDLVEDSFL

inhibition [1]: 82%
inhibition [2]: < 65%
inhibition [3]: < 65%
inhibition [4]: < 65%
inhibition [5]: < 65%
inhibition [6]: < 65%
inhibition [7]: < 65%
inhibition [8]: < 65%
inhibition [9]: < 65%
inhibition [10]: < 65%
inhibition [11]: < 65%
inhibition [12]: < 65%
inhibition [13]: < 65%
inhibition [14]: < 65%
inhibition [15]: < 65%
inhibition [16]: < 65%
inhibition [17]: < 65%
inhibition [18]: < 65%
inhibition [19]: < 65%
inhibition [20]: < 65%
inhibition [21]: < 65%
inhibition [22]: < 65%
inhibition [23]: < 65%
inhibition [24]: < 65%
pIC50 [25]: 8.22
pIC50 [26]: 7.19
pIC50 (Insulin receptor): 5.85
inhibition [27]: < 65%
inhibition [28]: < 65%
inhibition [29]: < 65%
inhibition [30]: < 65%
inhibition [31]: < 65%
inhibition [32]: < 65%
inhibition [33]: < 65%
inhibition [34]: < 65%
inhibition [35]: < 65%
inhibition [36]: < 65%
inhibition [37]: < 65%
inhibition [38]: < 65%
inhibition [39]: < 65%
inhibition [40]: < 65%
inhibition [41]: < 65%
inhibition [42]: < 65%
inhibition [43]: < 65%
inhibition [44]: 86%
inhibition [45]: < 65%
inhibition [46]: 97%
inhibition [47]: < 65%
inhibition [48]: 97%
Structure (SMILES): COCCN1CCc2cc(Nc3ncc(Cl)c(N[C@@H]4CCCC[C@H]4NS(C)(=O)=O)n3)c(OC)cc2CC1

inhibition [1]: 99%
inhibition [2]: < 65%
inhibition [3]: < 65%
inhibition [4]: < 65%
inhibition [5]: < 65%
inhibition [6]: 92%
inhibition [7]: < 65%
inhibition [8]: 94%
inhibition [9]: < 65%
inhibition [10]: < 65%
inhibition [11]: < 65%
inhibition [12]: < 65%
inhibition [13]: < 65%
inhibition [14]: < 65%
inhibition [15]: 90%
inhibition [16]: < 65%
inhibition [17]: < 65%
inhibition [18]: < 65%
inhibition [19]: < 65%
inhibition [20]: < 65%
inhibition [21]: < 65%
inhibition [22]: < 65%
inhibition [23]: < 65%
inhibition [24]: < 65%
pIC50 [25]: 8.52
pIC50 [26]: 7.82
pIC50 (Insulin receptor): 6.34
inhibition [27]: < 65%
inhibition [28]: < 65%
inhibition [29]: < 65%
inhibition [30]: < 65%
inhibition [31]: < 65%
inhibition [32]: < 65%
inhibition [33]: < 65%
inhibition [34]: < 65%
inhibition [35]: < 65%
inhibition [36]: < 65%
inhibition [37]: < 65%
inhibition [38]: < 65%
inhibition [39]: 89%
inhibition [40]: < 65%
inhibition [41]: < 65%
inhibition [42]: < 65%
inhibition [43]: < 65%
inhibition [44]: 100%
inhibition [45]: 100%
inhibition [46]: 100%
inhibition [47]: 100%
inhibition [48]: 100%
Structure (SMILES): COCCN1CCc2cc(Nc3ncc(Cl)c(N[C@@H]4CCCC[C@H]4N(C)S(C)(=O)=O)n3)c(OC)cc2CC1
